ChEMBL document CHEMBL4507263, “Data for DCP probe BAY-474” (2021)
Activity calls are given as the source filed them. The rule behind the calls is not given here.

Tests used:
[1] = target: D(1A) dopamine receptor (Homo sapiens) (UniProt P21728); conditions: Compound concentration 10.0 uM
[2] = target: Beta-2 adrenergic receptor (Homo sapiens) (UniProt P07550); conditions: Compound concentration 10.0 uM
[3] = target: Alpha-2A adrenergic receptor (Homo sapiens) (UniProt P08913); conditions: Compound concentration 10.0 uM
[4] = target: 5-hydroxytryptamine receptor 7 (Homo sapiens) (UniProt P34969); conditions: Compound concentration 10.0 uM
[5] = target: 5-hydroxytryptamine receptor 2A (Homo sapiens) (UniProt P28223); conditions: Compound concentration 10.0 uM
[6] = target: 5-hydroxytryptamine receptor 6 (Homo sapiens, UniProt P50406); conditions: Compound concentration 10.0 uM
[7] = target: D(2) dopamine receptor (Homo sapiens) (UniProt P14416); conditions: Compound concentration 10.0 uM
[8] = target: T1, Muscarinic acetylcholine receptor M2 (Homo sapiens) (UniProt P08172); conditions: Compound concentration 10.0 uM
T1 sequence (whole entry): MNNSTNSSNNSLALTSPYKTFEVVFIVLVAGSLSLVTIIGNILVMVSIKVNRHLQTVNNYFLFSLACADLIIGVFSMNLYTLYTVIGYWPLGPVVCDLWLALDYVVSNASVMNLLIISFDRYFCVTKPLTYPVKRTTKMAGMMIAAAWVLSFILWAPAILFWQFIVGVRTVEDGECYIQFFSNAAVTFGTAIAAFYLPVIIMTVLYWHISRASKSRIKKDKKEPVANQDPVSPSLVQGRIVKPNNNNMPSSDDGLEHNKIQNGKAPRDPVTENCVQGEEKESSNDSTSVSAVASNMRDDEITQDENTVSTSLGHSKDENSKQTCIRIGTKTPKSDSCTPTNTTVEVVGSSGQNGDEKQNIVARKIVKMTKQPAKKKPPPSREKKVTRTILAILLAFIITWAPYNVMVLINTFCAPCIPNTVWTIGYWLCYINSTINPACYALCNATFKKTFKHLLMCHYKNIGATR

[9] = target: T2, Alpha-1D adrenergic receptor (Homo sapiens) (UniProt P25100); conditions: Compound concentration 10.0 uM
T2 sequence (whole entry): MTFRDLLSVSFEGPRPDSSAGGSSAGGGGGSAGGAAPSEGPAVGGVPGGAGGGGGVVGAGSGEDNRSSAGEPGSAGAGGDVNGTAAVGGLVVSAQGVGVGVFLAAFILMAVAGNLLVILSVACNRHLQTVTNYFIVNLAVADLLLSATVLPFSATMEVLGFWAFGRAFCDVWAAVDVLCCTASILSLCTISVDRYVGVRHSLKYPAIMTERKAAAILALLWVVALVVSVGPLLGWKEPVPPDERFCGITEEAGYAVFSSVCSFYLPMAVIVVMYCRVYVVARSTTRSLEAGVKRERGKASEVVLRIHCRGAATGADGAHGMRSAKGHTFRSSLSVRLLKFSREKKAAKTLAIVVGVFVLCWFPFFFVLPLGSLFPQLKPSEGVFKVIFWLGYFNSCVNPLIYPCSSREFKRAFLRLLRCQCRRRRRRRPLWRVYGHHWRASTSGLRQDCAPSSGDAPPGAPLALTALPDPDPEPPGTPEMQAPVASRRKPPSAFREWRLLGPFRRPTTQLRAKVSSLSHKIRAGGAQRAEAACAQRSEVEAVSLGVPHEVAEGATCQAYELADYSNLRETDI

[10] = target: Hepatocyte growth factor receptor (Homo sapiens, UniProt P08581); assay: Homogeneous Time Resolved Fluorescence Assay
[11] = target: Beta-1 adrenergic receptor (Homo sapiens) (UniProt P08588); conditions: Compound concentration 10.0 uM
[12] = target: Muscarinic acetylcholine receptor M3 (Homo sapiens) (UniProt P20309); conditions: Compound concentration 10.0 uM
D(1B) dopamine receptor = D(1B) dopamine receptor (Homo sapiens, UniProt P21918); conditions: Compound concentration 10.0 uM
[13] = target: 5-hydroxytryptamine receptor 2C (Homo sapiens) (UniProt P28335); conditions: Compound concentration 10.0 uM
[14] = target: 5-hydroxytryptamine receptor 3A (Homo sapiens) (UniProt P46098); conditions: Compound concentration 10.0 uM
[15] = target: Alpha-1B adrenergic receptor (Homo sapiens) (UniProt P35368); conditions: Compound concentration 10.0 uM
[16] = target: Histamine H2 receptor (Homo sapiens) (UniProt P25021); conditions: Compound concentration 10.0 uM
[17] = target: 5-hydroxytryptamine receptor 1B (Homo sapiens) (UniProt P28222); conditions: Compound concentration 10.0 uM
[18] = target: Muscarinic acetylcholine receptor M4 (Homo sapiens) (UniProt P08173); conditions: Compound concentration 10.0 uM
[19] = target: Delta-type opioid receptor (Homo sapiens) (UniProt P41143); conditions: Compound concentration 10.0 uM
[20] = target: Beta-3 adrenergic receptor (Homo sapiens) (UniProt P13945); conditions: Compound concentration 10.0 uM
[21] = target: Mu-type opioid receptor (Homo sapiens) (UniProt P35372); conditions: Compound concentration 10.0 uM
[22] = target: T3, D(4) dopamine receptor (Homo sapiens) (UniProt P21917); conditions: Compound concentration 10.0 uM
T3 sequence (whole entry): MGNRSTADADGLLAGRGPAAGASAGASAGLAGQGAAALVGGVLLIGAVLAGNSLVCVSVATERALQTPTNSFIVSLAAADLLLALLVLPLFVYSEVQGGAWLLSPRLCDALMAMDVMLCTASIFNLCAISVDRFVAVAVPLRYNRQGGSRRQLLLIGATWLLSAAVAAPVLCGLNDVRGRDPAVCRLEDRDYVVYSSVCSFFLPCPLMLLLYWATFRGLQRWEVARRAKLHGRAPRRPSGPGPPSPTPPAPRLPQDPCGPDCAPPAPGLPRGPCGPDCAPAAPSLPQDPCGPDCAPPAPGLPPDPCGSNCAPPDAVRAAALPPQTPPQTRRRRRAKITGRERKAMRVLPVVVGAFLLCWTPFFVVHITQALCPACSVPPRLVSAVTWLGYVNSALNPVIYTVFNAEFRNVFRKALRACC

Sequence of D(2) dopamine receptor (Homo sapiens) (P14416 whole entry): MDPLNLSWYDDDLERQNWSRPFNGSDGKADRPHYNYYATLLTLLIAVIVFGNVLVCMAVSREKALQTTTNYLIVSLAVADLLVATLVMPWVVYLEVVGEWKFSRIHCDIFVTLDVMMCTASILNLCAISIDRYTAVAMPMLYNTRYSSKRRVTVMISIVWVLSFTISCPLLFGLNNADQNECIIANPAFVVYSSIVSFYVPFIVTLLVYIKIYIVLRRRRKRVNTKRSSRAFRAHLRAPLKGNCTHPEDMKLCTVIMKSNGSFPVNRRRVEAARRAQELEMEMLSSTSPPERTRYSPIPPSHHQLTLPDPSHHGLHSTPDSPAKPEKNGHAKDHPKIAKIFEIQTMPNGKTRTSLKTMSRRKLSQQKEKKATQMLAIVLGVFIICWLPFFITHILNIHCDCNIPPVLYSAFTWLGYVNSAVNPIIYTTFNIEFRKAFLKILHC
Sequence of 5-hydroxytryptamine receptor 6 (P50406 whole entry): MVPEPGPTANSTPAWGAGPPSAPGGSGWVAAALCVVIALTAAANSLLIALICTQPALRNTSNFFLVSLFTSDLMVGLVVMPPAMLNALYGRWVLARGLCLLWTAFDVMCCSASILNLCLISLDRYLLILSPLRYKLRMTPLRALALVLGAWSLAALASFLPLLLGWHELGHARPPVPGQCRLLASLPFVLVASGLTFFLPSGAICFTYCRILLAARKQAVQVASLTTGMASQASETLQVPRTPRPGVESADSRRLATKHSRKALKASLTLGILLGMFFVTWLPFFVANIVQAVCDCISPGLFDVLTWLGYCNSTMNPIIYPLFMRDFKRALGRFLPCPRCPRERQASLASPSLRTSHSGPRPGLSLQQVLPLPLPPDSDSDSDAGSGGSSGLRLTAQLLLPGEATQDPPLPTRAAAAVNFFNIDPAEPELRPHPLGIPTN
Sequence of Beta-1 adrenergic receptor (Homo sapiens) (P08588 whole entry, looked up): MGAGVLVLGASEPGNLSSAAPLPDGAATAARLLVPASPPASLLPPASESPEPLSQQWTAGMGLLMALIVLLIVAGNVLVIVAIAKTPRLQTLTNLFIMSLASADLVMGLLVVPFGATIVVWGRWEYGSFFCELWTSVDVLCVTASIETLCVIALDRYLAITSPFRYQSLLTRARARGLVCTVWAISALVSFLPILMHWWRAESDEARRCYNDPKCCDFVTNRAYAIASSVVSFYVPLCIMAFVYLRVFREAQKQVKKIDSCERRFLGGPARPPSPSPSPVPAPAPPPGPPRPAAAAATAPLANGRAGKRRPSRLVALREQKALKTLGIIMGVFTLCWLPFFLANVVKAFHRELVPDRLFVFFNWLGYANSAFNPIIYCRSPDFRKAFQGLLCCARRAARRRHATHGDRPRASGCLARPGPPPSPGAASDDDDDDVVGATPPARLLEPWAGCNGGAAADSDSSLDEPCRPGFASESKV
Sequence of Alpha-1B adrenergic receptor (Homo sapiens) (P35368 whole entry): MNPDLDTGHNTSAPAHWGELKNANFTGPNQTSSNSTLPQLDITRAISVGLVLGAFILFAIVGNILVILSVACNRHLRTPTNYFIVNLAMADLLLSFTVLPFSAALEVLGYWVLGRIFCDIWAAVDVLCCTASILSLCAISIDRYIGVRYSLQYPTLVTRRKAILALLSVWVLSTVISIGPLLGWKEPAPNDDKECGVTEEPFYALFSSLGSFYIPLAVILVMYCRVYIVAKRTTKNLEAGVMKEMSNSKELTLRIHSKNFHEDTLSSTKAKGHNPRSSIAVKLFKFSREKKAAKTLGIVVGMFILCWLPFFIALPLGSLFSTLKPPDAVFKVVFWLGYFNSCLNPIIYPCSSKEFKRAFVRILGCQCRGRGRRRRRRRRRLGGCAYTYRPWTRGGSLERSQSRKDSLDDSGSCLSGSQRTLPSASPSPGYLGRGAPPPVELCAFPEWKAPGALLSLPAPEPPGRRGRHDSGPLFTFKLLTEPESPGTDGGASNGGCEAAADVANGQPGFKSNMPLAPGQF
Sequence of Beta-2 adrenergic receptor (Homo sapiens) (P07550 whole entry, looked up): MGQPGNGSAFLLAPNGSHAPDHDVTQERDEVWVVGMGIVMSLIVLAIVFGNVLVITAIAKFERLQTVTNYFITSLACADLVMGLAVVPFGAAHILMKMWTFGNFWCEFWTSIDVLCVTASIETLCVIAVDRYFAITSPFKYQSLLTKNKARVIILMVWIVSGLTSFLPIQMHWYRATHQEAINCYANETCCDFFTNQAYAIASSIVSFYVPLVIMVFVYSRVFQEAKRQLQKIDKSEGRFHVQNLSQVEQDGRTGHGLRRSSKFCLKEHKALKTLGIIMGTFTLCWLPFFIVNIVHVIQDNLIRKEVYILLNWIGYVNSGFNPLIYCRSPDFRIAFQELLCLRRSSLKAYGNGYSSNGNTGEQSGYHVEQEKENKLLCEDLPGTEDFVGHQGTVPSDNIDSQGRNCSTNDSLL
Sequence of Histamine H2 receptor (Homo sapiens) (P25021 whole entry): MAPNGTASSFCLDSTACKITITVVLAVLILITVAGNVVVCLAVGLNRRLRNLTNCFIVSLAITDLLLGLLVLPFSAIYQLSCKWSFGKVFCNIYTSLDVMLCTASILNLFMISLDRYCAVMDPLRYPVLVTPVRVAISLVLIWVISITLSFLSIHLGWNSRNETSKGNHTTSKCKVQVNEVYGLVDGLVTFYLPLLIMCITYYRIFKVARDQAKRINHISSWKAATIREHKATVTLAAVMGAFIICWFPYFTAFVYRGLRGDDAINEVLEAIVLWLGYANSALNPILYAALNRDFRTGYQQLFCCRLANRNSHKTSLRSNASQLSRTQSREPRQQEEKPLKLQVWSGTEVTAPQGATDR
Sequence of Mu-type opioid receptor (Homo sapiens) (P35372 whole entry): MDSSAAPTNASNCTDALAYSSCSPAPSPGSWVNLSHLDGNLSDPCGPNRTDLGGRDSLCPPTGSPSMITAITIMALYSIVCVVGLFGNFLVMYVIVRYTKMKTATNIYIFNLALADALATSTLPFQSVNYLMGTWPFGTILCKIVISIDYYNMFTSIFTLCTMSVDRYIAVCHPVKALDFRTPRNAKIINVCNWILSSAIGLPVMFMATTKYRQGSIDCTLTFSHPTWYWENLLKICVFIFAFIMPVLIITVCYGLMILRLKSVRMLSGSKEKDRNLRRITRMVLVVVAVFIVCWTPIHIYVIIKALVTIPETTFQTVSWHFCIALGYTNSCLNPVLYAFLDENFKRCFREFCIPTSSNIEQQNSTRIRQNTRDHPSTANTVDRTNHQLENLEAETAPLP
Sequence of 5-hydroxytryptamine receptor 2C (Homo sapiens) (P28335 whole entry): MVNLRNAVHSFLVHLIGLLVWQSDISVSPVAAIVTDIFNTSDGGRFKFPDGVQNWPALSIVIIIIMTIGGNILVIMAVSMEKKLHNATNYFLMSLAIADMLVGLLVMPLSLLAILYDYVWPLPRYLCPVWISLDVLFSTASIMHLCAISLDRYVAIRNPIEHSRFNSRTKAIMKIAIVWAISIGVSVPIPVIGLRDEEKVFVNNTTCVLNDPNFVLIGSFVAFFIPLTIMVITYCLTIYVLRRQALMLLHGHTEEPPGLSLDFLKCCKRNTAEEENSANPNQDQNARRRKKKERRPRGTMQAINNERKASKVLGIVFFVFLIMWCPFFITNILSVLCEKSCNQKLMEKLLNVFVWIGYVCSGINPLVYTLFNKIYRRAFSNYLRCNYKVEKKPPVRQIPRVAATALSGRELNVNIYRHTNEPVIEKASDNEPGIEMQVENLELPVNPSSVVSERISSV
Sequence of 5-hydroxytryptamine receptor 1B (Homo sapiens) (P28222 whole entry): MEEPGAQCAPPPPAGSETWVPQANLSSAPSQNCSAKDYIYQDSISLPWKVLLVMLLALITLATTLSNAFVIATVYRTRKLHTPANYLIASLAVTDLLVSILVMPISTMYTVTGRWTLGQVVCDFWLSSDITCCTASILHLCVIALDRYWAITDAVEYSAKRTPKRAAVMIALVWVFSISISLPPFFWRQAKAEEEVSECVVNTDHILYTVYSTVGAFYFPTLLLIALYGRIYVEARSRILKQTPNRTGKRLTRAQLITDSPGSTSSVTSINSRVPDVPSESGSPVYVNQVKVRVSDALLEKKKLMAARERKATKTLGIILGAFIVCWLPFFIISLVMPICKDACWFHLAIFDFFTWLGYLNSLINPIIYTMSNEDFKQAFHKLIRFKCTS
Sequence of 5-hydroxytryptamine receptor 2A (Homo sapiens) (P28223 whole entry): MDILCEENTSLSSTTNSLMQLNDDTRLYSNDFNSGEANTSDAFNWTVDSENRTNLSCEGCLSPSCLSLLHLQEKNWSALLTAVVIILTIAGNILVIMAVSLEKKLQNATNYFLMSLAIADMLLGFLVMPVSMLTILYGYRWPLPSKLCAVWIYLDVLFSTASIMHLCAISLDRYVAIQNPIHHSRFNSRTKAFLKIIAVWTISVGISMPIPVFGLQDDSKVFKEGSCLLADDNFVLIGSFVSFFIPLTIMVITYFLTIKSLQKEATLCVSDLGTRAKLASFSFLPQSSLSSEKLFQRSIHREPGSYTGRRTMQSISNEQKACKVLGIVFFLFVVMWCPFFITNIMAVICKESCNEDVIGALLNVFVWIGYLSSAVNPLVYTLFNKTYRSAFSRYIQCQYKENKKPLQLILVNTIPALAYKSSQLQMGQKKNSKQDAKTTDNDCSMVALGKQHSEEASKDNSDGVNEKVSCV
Sequence of Beta-3 adrenergic receptor (Homo sapiens) (P13945 whole entry, looked up): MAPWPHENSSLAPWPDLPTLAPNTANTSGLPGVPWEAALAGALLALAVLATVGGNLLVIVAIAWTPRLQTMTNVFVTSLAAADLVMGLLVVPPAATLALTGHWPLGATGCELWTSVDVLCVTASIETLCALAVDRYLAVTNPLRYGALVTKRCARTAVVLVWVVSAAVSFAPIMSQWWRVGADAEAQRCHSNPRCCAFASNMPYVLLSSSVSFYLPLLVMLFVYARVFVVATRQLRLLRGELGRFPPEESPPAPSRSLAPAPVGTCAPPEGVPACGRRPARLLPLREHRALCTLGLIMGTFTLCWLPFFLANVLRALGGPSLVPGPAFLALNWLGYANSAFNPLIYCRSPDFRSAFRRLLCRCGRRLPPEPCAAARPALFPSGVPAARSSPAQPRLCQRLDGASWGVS

Row | Structure (SMILES) | inhibition [1] | inhibition [2] | inhibition [3] | inhibition [4] | inhibition [5] | inhibition [6] | inhibition [7] | inhibition [8] | inhibition [9] | IC50 [10] | inhibition [11] | inhibition [12] | inhibition (D(1B) dopamine receptor) | inhibition [13] | inhibition [14] | inhibition [15] | inhibition [16] | inhibition [17] | inhibition [18] | inhibition [19] | further results
1 | CC1=C(C#N)C(c2ccc3[nH]nc(C)c3c2)C(C#N)=C(C)N1 [BAY-474] | 6.92% | 20.2% | -3.48% | -0.97% | 8.75% | 20.7% | -7.07% | -8.64% | 2.5% | < 0.001 µM (active) | 2.16% | -1.54% | 5.4% | 22.4% | 33% | 1.79% | 12.6% | 0.48% | 5.33% | 16.9% | inhibition [20]: 21.1%; inhibition [21]: 2.64%; inhibition [22]: 24%
2 | CC1=C(C#N)[C@@H](c2ccc3[nH]nc(C)c3c2)C(C#N)=C(c2ccc(Cl)cc2)N1 [BAY-827] | 6.7% | -0.813% | 7.83% | 8.19% | 5.76% | 55.7% | 10.6% | 18.8% | 7.74% | 11 µM (not active) | 4.66% | 8.81% | 58.1% | 71.8% | 2.6% | 21.7% | 14.1% | 17.2% | 13% | 33.4% | inhibition [20]: 24.3%; inhibition [21]: -0.0207%; inhibition [22]: 5.34%
